Data as given in patent publication US20120122860A1, “SOLID FORMS OF SULFONAMIDES AND AMINO ACIDS” (Plexxikon, Inc., priority 2009, published 2012).

Assays:
B-Raf = B-Raf (Homo sapiens, UniProt P15056); experiment: Kinase activity assay, B-Raf; format: biochemical; conditions: read-out: activity toward kinase B-Raf, IC50
B-Raf V600E = B-Raf V600E (Homo sapiens, UniProt P15056, V600E); experiment: Kinase activity assay, B-Raf V600E; format: biochemical; conditions: read-out: activity toward kinase B-Raf V600E, IC50
Kit = Kit (Homo sapiens, UniProt P10721); experiment: Kinase activity assay, Kit
A-Raf = molecular target: T1, A-Raf (Homo sapiens, UniProt P10398); experiment: Kinase activity assay, A-Raf
T1 sequence (P10398 1-606): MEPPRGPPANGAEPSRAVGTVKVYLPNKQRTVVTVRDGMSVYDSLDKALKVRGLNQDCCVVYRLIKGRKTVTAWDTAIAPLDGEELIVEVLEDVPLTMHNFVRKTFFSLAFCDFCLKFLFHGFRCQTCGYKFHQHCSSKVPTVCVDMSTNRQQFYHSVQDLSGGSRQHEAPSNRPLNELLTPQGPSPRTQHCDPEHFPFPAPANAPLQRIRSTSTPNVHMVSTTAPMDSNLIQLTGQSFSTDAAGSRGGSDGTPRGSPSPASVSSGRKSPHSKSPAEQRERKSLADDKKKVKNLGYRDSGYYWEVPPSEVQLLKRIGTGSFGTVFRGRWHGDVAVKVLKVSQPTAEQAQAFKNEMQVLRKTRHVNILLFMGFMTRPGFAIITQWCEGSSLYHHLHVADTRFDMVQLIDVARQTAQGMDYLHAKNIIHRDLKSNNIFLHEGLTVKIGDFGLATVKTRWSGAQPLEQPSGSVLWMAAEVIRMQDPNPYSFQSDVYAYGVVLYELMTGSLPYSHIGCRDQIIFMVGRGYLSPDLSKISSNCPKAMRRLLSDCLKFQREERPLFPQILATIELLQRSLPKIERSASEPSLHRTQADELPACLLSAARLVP

C-Raf = C-Raf (Homo sapiens, UniProt P04049); experiment: Kinase activity assay, C-Raf
Src = Src (Homo sapiens, UniProt P12931); experiment: Kinase activity assay, Src
Kdr = Kdr (Homo sapiens, UniProt P35968); experiment: Kinase activity assay, Kdr
Chain of Kdr (P35968 20-1356): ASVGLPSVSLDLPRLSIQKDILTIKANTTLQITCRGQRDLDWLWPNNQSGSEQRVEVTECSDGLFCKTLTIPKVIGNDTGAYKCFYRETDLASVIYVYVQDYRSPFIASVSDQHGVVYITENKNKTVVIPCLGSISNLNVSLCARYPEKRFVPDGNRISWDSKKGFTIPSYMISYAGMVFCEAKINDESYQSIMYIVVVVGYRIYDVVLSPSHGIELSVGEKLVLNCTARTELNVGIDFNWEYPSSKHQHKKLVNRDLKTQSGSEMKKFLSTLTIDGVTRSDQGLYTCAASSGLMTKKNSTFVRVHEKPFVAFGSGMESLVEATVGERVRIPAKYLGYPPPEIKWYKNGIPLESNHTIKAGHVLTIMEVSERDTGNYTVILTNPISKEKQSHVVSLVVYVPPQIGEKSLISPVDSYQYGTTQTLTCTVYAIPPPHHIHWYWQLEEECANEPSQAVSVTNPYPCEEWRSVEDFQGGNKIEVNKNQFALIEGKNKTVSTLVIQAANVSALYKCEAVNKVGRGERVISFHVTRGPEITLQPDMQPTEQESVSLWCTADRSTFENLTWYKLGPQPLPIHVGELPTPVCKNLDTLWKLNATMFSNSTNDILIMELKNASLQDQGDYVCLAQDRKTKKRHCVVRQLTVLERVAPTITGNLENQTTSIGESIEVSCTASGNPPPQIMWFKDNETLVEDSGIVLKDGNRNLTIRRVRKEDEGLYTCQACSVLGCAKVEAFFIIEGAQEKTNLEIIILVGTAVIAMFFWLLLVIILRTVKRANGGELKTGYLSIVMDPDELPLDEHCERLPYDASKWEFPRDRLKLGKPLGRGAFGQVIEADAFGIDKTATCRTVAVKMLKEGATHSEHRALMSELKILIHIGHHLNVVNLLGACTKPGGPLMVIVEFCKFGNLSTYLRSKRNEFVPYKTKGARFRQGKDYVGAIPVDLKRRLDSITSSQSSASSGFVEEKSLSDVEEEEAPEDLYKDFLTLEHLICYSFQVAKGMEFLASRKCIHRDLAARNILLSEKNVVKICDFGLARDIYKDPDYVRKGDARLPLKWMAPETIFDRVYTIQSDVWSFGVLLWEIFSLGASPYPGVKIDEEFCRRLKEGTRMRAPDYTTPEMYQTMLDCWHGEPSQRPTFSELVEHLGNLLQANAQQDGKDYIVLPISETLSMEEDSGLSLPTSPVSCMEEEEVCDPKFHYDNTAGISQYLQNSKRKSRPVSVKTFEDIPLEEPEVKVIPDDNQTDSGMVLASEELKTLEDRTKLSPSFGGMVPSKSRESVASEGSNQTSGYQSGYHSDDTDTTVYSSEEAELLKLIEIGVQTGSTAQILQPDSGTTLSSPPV

Chain of B-Raf V600E (P15056 whole entry V600E): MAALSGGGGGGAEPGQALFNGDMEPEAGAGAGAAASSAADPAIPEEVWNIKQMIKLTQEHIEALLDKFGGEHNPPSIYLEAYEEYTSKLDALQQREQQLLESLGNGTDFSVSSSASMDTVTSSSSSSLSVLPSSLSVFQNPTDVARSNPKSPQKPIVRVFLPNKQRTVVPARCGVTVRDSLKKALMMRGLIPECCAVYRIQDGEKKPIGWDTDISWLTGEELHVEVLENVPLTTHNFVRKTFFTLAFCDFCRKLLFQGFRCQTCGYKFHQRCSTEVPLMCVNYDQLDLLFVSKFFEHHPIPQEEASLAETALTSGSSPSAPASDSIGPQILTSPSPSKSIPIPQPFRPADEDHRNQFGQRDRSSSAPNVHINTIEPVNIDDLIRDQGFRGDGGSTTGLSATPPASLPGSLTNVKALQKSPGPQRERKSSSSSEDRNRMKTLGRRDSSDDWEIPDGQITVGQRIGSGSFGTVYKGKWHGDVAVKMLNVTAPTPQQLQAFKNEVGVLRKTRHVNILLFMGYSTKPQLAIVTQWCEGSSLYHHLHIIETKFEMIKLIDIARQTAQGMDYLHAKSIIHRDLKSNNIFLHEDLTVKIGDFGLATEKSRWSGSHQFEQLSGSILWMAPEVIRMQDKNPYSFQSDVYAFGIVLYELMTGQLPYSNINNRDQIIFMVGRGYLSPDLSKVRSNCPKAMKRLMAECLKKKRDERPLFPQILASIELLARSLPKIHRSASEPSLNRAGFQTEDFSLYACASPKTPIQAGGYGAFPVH
Chain of B-Raf (P15056 whole entry): as the sequence (P15056 whole entry V600E) above, with E600V counted along it
Chain of Kit (P10721 26-976): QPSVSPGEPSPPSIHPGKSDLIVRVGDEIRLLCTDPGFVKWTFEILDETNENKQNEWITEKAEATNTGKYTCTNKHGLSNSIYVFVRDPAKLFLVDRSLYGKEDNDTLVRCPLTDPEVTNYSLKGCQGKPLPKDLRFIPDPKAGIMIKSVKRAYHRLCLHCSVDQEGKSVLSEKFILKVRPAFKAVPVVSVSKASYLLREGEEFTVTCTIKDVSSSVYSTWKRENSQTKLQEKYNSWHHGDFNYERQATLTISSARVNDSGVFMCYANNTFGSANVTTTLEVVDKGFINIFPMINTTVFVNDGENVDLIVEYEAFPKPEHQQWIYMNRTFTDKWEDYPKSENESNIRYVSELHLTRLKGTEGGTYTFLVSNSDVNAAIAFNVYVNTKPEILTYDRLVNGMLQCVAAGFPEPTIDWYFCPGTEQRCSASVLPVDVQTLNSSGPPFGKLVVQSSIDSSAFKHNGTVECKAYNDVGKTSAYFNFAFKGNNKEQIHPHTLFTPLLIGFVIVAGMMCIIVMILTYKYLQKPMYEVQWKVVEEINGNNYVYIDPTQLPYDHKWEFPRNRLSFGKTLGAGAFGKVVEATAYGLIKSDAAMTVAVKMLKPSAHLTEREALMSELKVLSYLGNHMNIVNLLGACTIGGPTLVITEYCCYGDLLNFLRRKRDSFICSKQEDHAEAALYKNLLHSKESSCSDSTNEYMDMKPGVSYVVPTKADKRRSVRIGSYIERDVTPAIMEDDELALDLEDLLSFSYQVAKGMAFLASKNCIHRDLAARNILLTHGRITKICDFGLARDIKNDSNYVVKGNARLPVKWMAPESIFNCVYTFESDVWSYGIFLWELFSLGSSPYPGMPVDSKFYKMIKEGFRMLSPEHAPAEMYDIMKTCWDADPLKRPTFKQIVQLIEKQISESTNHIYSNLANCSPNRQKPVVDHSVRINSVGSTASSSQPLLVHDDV
Chain of C-Raf (P04049 whole entry): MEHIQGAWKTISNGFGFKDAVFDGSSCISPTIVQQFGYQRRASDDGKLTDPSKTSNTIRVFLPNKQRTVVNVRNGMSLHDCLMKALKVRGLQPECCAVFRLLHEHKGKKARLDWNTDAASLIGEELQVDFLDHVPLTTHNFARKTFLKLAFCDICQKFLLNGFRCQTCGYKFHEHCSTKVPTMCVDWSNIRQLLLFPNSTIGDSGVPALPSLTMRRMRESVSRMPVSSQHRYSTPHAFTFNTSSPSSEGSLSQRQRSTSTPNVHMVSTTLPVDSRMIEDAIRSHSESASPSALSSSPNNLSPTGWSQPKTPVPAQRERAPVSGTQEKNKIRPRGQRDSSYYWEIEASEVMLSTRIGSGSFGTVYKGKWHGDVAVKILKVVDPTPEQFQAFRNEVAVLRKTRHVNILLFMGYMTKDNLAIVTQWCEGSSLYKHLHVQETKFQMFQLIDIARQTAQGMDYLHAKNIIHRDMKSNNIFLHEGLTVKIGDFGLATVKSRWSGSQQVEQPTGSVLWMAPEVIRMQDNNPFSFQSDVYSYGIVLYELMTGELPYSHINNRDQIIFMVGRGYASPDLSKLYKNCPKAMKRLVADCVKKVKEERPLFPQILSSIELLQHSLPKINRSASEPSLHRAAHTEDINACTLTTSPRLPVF
Chain of Src (P12931 whole entry): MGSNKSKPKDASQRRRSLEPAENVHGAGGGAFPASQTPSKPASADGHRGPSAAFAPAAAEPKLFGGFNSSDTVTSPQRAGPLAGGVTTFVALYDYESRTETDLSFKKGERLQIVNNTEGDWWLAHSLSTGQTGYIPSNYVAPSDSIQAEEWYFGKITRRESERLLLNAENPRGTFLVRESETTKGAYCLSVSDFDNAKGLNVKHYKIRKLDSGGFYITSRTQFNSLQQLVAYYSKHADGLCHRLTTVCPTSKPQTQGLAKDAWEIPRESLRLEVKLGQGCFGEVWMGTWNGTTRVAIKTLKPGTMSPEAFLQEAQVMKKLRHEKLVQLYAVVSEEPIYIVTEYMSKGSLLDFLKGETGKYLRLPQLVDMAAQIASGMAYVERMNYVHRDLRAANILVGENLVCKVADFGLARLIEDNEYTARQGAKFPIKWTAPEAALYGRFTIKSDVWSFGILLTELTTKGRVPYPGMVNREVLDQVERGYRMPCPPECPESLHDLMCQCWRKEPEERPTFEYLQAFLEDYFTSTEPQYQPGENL

Compound	IC50 (B-Raf) [µM]	IC50 (B-Raf V600E) [µM]	IC50 (Kit) [µM]	IC50 (A-Raf) [µM]	IC50 (C-Raf) [µM]	IC50 (Src) [µM]	IC50 (Kdr) [µM]
N#Cc1ccnc2[nH]cc(C(=O)c3c(F)ccc(NS(=O)(=O)c4ccc(F)cc4)c3F)c12 [P-2035, N-[3-(4-Cyano-1H-pyrrolo[2,3-b]pyridine-3-carbonyl)-2,4-difluoro-phenyl]-4-fluoro-benzenesulfonamide]	≤ 10	≤ 10	≤ 10	≤ 10	≤ 10	–	–
N#Cc1ccnc2[nH]cc(C(=O)c3c(F)ccc(NS(=O)(=O)c4cccc(F)c4)c3F)c12 [P-2039, N-[3-(4-Cyano-1H-pyrrolo[2,3-b]pyridine-3-carbonyl)-2,4-difluoro-phenyl]-3-fluoro-benzenesulfonamide]	≤ 10	≤ 10	≤ 10	≤ 10	≤ 10	≤ 10	–
N#Cc1cnc2[nH]cc(C(=O)c3cccc(NS(=O)(=O)c4ccccc4)c3F)c2c1 [P-2056, N-[3-(5-Cyano-1H-pyrrolo[2,3-b]pyridine-3-carbonyl)-2-fluoro-phenyl]-benzenesulfonamide]	≤ 10	≤ 10	–	≤ 10	≤ 10	≤ 10	–
N#Cc1cnc2[nH]cc(C(=O)c3cccc(NS(=O)(=O)c4ccc(C(F)(F)F)cc4)c3F)c2c1 [P-2057, N-[3-(5-Cyano-1H-pyrrolo[2,3-b]pyridine-3-carbonyl)-2-fluoro-phenyl]-4-trifluoromethyl-benzenesulfonamide]	≤ 10	≤ 10	–	≤ 10	≤ 10	≤ 10	–
N#Cc1ccnc2[nH]cc(C(=O)c3c(F)ccc(NS(=O)(=O)c4ccccn4)c3F)c12 [P-2078, Pyridine-2-sulfonic acid [3-(4-cyano-1H-pyrrolo[2,3-b]pyridine-3-carbonyl)-2,4-difluoro-phenyl]-amide]	≤ 10	≤ 10	–	≤ 10	≤ 10	≤ 10	–
CCC(C)S(=O)(=O)Nc1ccc(F)c(C(=O)c2c[nH]c3ncc(C#N)cc23)c1F (centres unmarked) [P-2317, Butane-2-sulfonic acid [3-(5-cyano-1H-pyrrolo[2,3-b]pyridine-3-carbonyl)-2,4-difluoro-phenyl]-amide]	≤ 10	≤ 10	≤ 10	≤ 10	≤ 10	–	–
N#Cc1ccnc2[nH]cc(C(=O)c3c(F)ccc(NS(=O)(=O)CCC(F)(F)F)c3F)c12 [P-2332, 3,3,3-Trifluoro-propane-1-sulfonic acid [3-(4-cyano-1H-pyrrolo[2,3-b]pyridine-3-carbonyl)-2,4-difluoro-phenyl]-amide]	≤ 10	≤ 10	–	≤ 10	≤ 10	≤ 10	–
N#Cc1cnc2[nH]cc(C(=O)c3c(F)ccc(NS(=O)(=O)CC(F)(F)F)c3F)c2c1 [P-2336, 2,2,2-Trifluoro-ethanesulfonic acid [3-(5-cyano-1H-pyrrolo[2,3-b]pyridine-3-carbonyl)-2,4-difluoro-phenyl]-amide]	≤ 10	≤ 10	–	≤ 10	≤ 10	≤ 10	–
Cc1cnc2[nH]cc(C(=O)c3c(F)ccc(NS(=O)(=O)C4CCCC4)c3F)c2c1 [P-2365, Cyclopentanesulfonic acid [2,4-difluoro-3-(5-methyl-1H-pyrrolo[2,3-b]pyridine-3-carbonyl)-phenyl]-amide]	–	≤ 10	≤ 10	≤ 10	≤ 10	≤ 10	≤ 10
O=C(c1c(F)ccc(NS(=O)(=O)C2CCCC2)c1F)c1c[nH]c2nccc(Cl)c12 [P-2368, Cyclopentanesulfonic acid [3-(4-chloro-1H-pyrrolo[2,3-b]pyridine-3-carbonyl)-2,4-difluoro-phenyl]-amide]	≤ 10	≤ 10	–	≤ 10	≤ 10	≤ 10	–
CCN(CC)S(=O)(=O)Nc1ccc(F)c(C(=O)c2c[nH]c3ncc(Cl)cc23)c1F [P-2384, N,N-diethylamino-sulfonic acid [3-(5-chloro-1H-pyrrolo[2,3-b]pyridine-3-carbonyl)-2,4-difluoro-phenyl]-amide]	–	≤ 10	≤ 10	≤ 10	–	≤ 10	≤ 10
CCN(CC)S(=O)(=O)Nc1ccc(F)c(C(=O)c2c[nH]c3ncc(OC)cc23)c1F [P-2389, N,N-diethylamino-sulfonic acid [2,4-difluoro-3-(5-methoxy-1H-pyrrolo[2,3-b]pyridine-3-carbonyl)-phenyl]-amide]	–	≤ 10	≤ 10	≤ 10	–	≤ 10	≤ 10
COc1cnc2[nH]cc(C(=O)c3c(F)ccc(NS(=O)(=O)N4CCOCC4)c3F)c2c1 [P-2391, Morpholine-4-sulfonic acid [2,4-difluoro-3-(5-methoxy-1H-pyrrolo[2,3-b]pyridine-3-carbonyl)-phenyl]-amide]	–	≤ 10	≤ 10	≤ 10	≤ 10	≤ 10	–
Cc1cnc2[nH]cc(C(=O)c3c(F)ccc(NS(=O)(=O)N4CCOCC4)c3F)c2c1 [P-2392, Morpholine-4-sulfonic acid [2,4-difluoro-3-(5-methyl-1H-pyrrolo[2,3-b]pyridine-3-carbonyl)-phenyl]-amide]	–	≤ 10	≤ 10	≤ 10	≤ 10	≤ 10	–
O=C(c1c(F)ccc(NS(=O)(=O)N2CCOCC2)c1F)c1c[nH]c2nccc(Cl)c12 [P-2397, Morpholine-4-sulfonic acid [3-(4-chloro-1H-pyrrolo[2,3-b]pyridine-3-carbonyl)-2,4-difluoro-phenyl]-amide]	≤ 10	≤ 10	–	≤ 10	≤ 10	≤ 10	–

Other lines, results leading:

IC50 (B-Raf) [µM]	IC50 (B-Raf V600E) [µM]	IC50 (Kit) [µM]	IC50 (A-Raf) [µM]	IC50 (C-Raf) [µM]	IC50 (Src) [µM]	IC50 (Kdr) [µM]	Compound
–	≤ 10	–	≤ 10	≤ 10	≤ 10	–	CC(C)S(=O)(=O)Nc1ccc(F)c(C(=O)c2c[nH]c3nccc(Cl)c23)c1F [P-2284, Propane-2-sulfonic acid [3-(4-chloro-1H-pyrrolo[2,3-b]pyridine-3-carbonyl)-2,4-difluoro-phenyl]-amide]
–	≤ 10	–	≤ 10	–	≤ 10	–	CCCC(C)S(=O)(=O)Nc1ccc(F)c(C(=O)c2c[nH]c3nccc(OC)c23)c1F (centres unmarked) [P-2316, Pentane-2-sulfonic acid [2,4-difluoro-3-(4-methoxy-1H-pyrrolo[2,3-b]pyridine-3-carbonyl)-phenyl]-amide]
≤ 10	≤ 10	≤ 10	≤ 10	≤ 10	≤ 10	–	CC(C)CS(=O)(=O)Nc1ccc(F)c(C(=O)c2c[nH]c3nccc(Cl)c23)c1F [P-2318, 2-Methyl-propane-1-sulfonic acid [3-(4-chloro-1H-pyrrolo[2,3-b]pyridine-3-carbonyl)-2,4-difluoro-phenyl]-amide]
–	≤ 10	≤ 10	≤ 10	≤ 10	≤ 10	≤ 10	CCC(C)S(=O)(=O)Nc1ccc(F)c(C(=O)c2c[nH]c3nccc(Cl)c23)c1F (centres unmarked) [P-2319, Butane-2-sulfonic acid [3-(4-chloro-1H-pyrrolo[2,3-b]pyridine-3-carbonyl)-2,4-difluoro-phenyl]-amide]
≤ 10	≤ 10	–	≤ 10	≤ 10	≤ 10	≤ 10	CCC(C)S(=O)(=O)Nc1ccc(F)c(C(=O)c2c[nH]c3nccc(C#N)c23)c1F (centres unmarked) [P-2321, Butane-2-sulfonic acid [3-(4-cyano-1H-pyrrolo[2,3-b]pyridine-3-carbonyl)-2,4-difluoro-phenyl]-amide]
≤ 10	≤ 10	–	≤ 10	≤ 10	≤ 10	≤ 10	COc1ccnc2[nH]cc(C(=O)c3c(F)ccc(NS(=O)(=O)C4CCC4)c3F)c12 [P-2364, Cyclobutanesulfonic acid [2,4-difluoro-3-(4-methoxy-1H-pyrrolo[2,3-b]pyridine-3-carbonyl)-phenyl]-amide]
≤ 10	≤ 10	–	≤ 10	≤ 10	≤ 10	–	COc1ccnc2[nH]cc(C(=O)c3c(F)ccc(NS(=O)(=O)N4CCOCC4)c3F)c12 [P-2396, Morpholine-4-sulfonic acid [2,4-difluoro-3-(4-methoxy-1H-pyrrolo[2,3-b]pyridine-3-carbonyl)-phenyl]-amide]
